Data on 46 compounds can be found in ChEMBL document CHEMBL1145791, “Synthesis and biological activity of various derivatives of a novel class of potent, selective, and orally active prostaglandin D2 receptor antagonists. 1. Bicyclo[2.2.1]heptane derivatives” (J Med Chem, 2003).

Experiment [1] concerns the target T1, Prostaglandin D2 receptor (Homo sapiens, UniProt Q13258).
T1 sequence (Q13258 whole entry): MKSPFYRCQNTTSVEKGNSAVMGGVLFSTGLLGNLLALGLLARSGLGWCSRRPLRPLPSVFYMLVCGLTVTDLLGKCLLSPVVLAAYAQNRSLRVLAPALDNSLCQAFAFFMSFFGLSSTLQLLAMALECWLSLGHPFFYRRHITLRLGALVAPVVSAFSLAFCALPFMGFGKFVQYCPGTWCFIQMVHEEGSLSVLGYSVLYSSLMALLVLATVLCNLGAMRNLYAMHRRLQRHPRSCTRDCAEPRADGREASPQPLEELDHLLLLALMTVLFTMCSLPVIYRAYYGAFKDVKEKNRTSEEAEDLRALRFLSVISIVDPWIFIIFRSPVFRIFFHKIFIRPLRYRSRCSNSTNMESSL
The experiment can be described thus: In vitro inhibition of [3H]- PGD-2 radioligand binding to prostaglandin D2 receptor on human platelet membrane.

Experiment [2] has as its target T1, Prostaglandin D2 receptor. The experiment is described as follows: In vitro inhibition of cAMP formation evoked by prostaglandin D2 receptor in human platelets. Type of experiment: functional.
Experiment [3] has as its system Cavia porcellus. The experiment is described as follows: In vivo inhibition of antigen induced increase in intranasal pressure in actively sensitized guinea pig after dose of 10 mg/kg. Format: functional. The following applies: Cavia porcellus.
The test system of experiment [4] is Cavia porcellus. The experiment is described as follows: In vivo inhibition of antigen induced increase in intranasal pressure in actively sensitized guinea pig after an intravenous dose of 1 mg/kg. Type of experiment: functional.

The structures appear in SMILES notation.

Usually IC50 stands for the concentration needed to halve the response being measured. Lower therefore signals greater potency in that assay. Regarding `O=C(O)CCC/C=C\C[C@@H]1[C@H]2CC[C@H](C2)[C@H]1NS(=O)(=O)c1ccc(/C=C\c2ccccc2)cc1`, the IC50 in experiment [1] was 200 nM; in experiment [2] it was 180 nM.
For `CS(=O)(=O)NC(=O)CCC/C=C\C[C@@H]1[C@H]2CC[C@H](C2)[C@H]1NS(=O)(=O)c1ccc2oc3ccccc3c2c1`, the IC50 in experiment [1] is 42 nM; in experiment [2], 32 nM.
Turning to `O=C(O)CCC/C=C\C[C@@H]1[C@H]2CC[C@H](C2)[C@H]1NS(=O)(=O)c1ccc2c(c1)Cc1ccccc1-2`, the IC50 in experiment [2] was over 1000 nM.
With `O=C(O)CCC/C=C\C[C@@H]1[C@H]2CC[C@H](C2)[C@H]1NS(=O)(=O)c1ccc(C(=O)Nc2ccccc2)cc1`, the 50% inhibitory concentration (IC50) in experiment [1] was found to be 1100 nM; in experiment [2], 86 nM.
Broadly, the inhibition in vivo is the change of the read-out against control, counted positive when it falls. Consider `O=C(O)CCC/C=C\C[C@@H]1[C@H]2CC[C@H](C2)[C@H]1NS(=O)(=O)c1ccc2oc3ccccc3c2c1`, for which, in the experiment on Cavia porcellus [3], the inhibition in vivo at 10 mg/kg stood at 75%.
As for `CC(C)(C)c1ccc(S(=O)(=O)N[C@@H]2[C@@H]3CC[C@@H](C3)[C@H]2C/C=C\CCCC(=O)O)cc1`, the IC50 in experiment [1] is over 10000 nM; in experiment [2] it was 720 nM.
The corresponding values for `COc1cc2c(cc1S(=O)(=O)N[C@@H]1[C@@H]3CC[C@@H](C3)[C@H]1C/C=C\CCC(C)(C)C(=O)O)oc1ccccc12` are 57 nM and 320 nM.
The corresponding values for `O=C(O)CCC/C=C\C[C@@H]1[C@H]2CC[C@H](C2)[C@H]1NS(=O)(=O)c1ccc(-c2cc3ccccc3[nH]2)cc1` are 190 nM and 210 nM.
For `O=C(O)CCC/C=C\C[C@@H]1[C@H]2CC[C@H](C2)[C@H]1NS(=O)(=O)c1ccc(-c2ccccc2)s1`, in that order: 580 nM and 220 nM.
As for `O=C(O)CCC/C=C\C[C@@H]1[C@H]2CC[C@H](C2)[C@H]1NS(=O)(=O)c1ccc2oc3ccc(O)cc3c2c1`, the results for the 50% inhibitory concentration (IC50) in experiment [1] and in experiment [2] were 200 nM and 250 nM, respectively.
In the case of `O=C(O)CCC/C=C\C[C@@H]1[C@H]2CC[C@H](C2)[C@H]1NS(=O)(=O)c1ccc(CCc2ccccc2)cc1`, the IC50 was found to be 550 nM in experiment [1] and 260 nM in experiment [2].
For `O=C(O)CCC/C=C\C[C@@H]1[C@H]2CC[C@H](C2)[C@H]1NS(=O)(=O)c1ccc(-c2cccs2)s1`, in that order: 410 nM and 200 nM.
Regarding `CC(C)(CC/C=C\C[C@@H]1[C@H]2CC[C@H](C2)[C@H]1NS(=O)(=O)c1ccc2oc3ccccc3c2c1)C(=O)O`, the 50% inhibitory concentration (IC50) is 180 nM in experiment [1] and 320 nM in experiment [2].
As to `COc1ccc(-c2cc3ccc(S(=O)(=O)N[C@@H]4[C@@H]5CC[C@@H](C5)[C@H]4C/C=C\CCCC(=O)O)cc3[nH]2)cc1`, the inhibition in vivo at 1 mg/kg with Cavia porcellus [4] came out at 40%. Further, the IC50 came out at 15 nM in experiment [1] and 45 nM in experiment [2].
Regarding `O=C(O)CCC/C=C\C[C@@H]1[C@H]2CC[C@H](C2)[C@H]1NS(=O)(=O)c1ccc(-c2ccc(C(F)(F)F)cc2)cc1`, the results for the IC50 in experiment [1] and in experiment [2] were 660 nM and 350 nM, respectively.
The corresponding values for `O=C(O)CCCCC(=O)C[C@@H]1[C@H]2CC[C@H](C2)[C@H]1NS(=O)(=O)c1ccc2oc3ccccc3c2c1` are 680 nM and 19 nM.
For `O=C(O)CCC/C=C\C[C@@H]1[C@H]2CC[C@H](C2)[C@H]1NS(=O)(=O)c1ccc2cc(-c3ccccc3)[nH]c2c1`, the IC50 in experiment [2] is 71 nM.
On to `COc1cc2c(cc1S(=O)(=O)N[C@@H]1[C@@H]3CC[C@@H](C3)[C@H]1CC(=O)CCCCC(=O)O)oc1ccccc12`, for which the IC50 in experiment [1] was 960 nM; in experiment [2], 33 nM.
In the case of `O=C(O)CCC/C=C\C[C@@H]1[C@H]2CC[C@H](C2)[C@H]1NS(=O)(=O)c1ccc2[nH]c3ccccc3c2c1`, the inhibition in vivo at 1 mg/kg in the experiment with Cavia porcellus [4] is -9%. Also, the IC50 in experiment [1] and in experiment [2] was 22 nM throughout.
`O=C(O)CCC/C=C\C[C@@H]1[C@H]2CC[C@H](C2)[C@H]1NS(=O)(=O)c1ccc(Cc2ccccc2)cc1`: the IC50 in experiment [1] stood at 5200 nM; in experiment [2], 650 nM.
For the compound `O=C(O)CCC/C=C\C[C@@H]1[C@H]2CC[C@H](C2)[C@H]1NS(=O)(=O)c1ccc2sc3ccccc3c2c1`, the inhibition in vivo at 1 mg/kg in the experiment with Cavia porcellus [4] was 31%. Further, the IC50 in experiment [1] came out at 64 nM; in experiment [2] it was 180 nM.
Turning to `O=C(O)CCC/C=C\C[C@@H]1[C@H]2CC[C@H](C2)[C@H]1NS(=O)(=O)c1ccc(-c2nnnn2-c2ccccc2)cc1`, the IC50 in experiment [1] worked out at 62 nM; in experiment [2], 380 nM.
For `O=C(O)CCC/C=C\C[C@@H]1[C@H]2CC[C@H](C2)[C@H]1NS(=O)(=O)c1ccc2oc3cc([N+](=O)[O-])ccc3c2c1`, in that order: 550 nM and 57 nM.
The corresponding values for `COc1ccc(-c2ccc(S(=O)(=O)N[C@@H]3[C@@H]4CC[C@@H](C4)[C@H]3C/C=C\CCCC(=O)O)cc2)cc1` are 450 nM and 200 nM.
For `COc1ccc2oc3ccc(S(=O)(=O)N[C@@H]4[C@@H]5CC[C@@H](C5)[C@H]4C/C=C\CCCC(=O)O)cc3c2c1`, in that order: 34 nM and 330 nM.
With `O=C(O)CCC/C=C\C[C@@H]1[C@H]2CC[C@H](C2)[C@H]1NS(=O)(=O)c1ccc(/N=N/c2ccccc2)cc1`, the IC50 in experiment [1] was determined as 25 nM.
Regarding `O=C(O)CCC/C=C\C[C@@H]1[C@H]2CC[C@H](C2)[C@H]1NS(=O)(=O)c1ccc2cc(-c3ccc(O)cc3)[nH]c2c1`, the inhibition in vivo at 1 mg/kg in the experiment on Cavia porcellus [4] is 42%. Besides, the IC50 in experiment [1] amounted to 18 nM; in experiment [2], 25 nM.
For the compound `O=C(O)CCCCCC[C@@H]1[C@H]2CC[C@H](C2)[C@H]1NS(=O)(=O)c1ccc2oc3ccccc3c2c1`, the IC50 in experiment [1] was 120 nM; in experiment [2], 430 nM.
For `O=C(O)CCC/C=C\C[C@@H]1[C@H]2CC[C@H](C2)[C@H]1NS(=O)(=O)c1cc2oc3ccccc3c2cc1O`, in that order: 190 nM and 180 nM.
As to `O=C(O)CCC/C=C\C[C@@H]1[C@H]2CC[C@H](C2)[C@H]1NS(=O)(=O)c1ccc(Oc2ccccc2)cc1`, the IC50 in experiment [1] was determined as 680 nM; in experiment [2], 570 nM.
The corresponding values for `Cn1c(-c2ccccc2)cc2ccc(S(=O)(=O)N[C@@H]3[C@@H]4CC[C@@H](C4)[C@H]3C/C=C\CCCC(=O)O)cc21` are 380 nM and 190 nM.
The corresponding values for `COc1ccc(S(=O)(=O)N[C@@H]2[C@@H]3CC[C@@H](C3)[C@H]2C/C=C\CCCC(=O)O)cc1` are over 10000 nM and 390 nM.
For `O=C(O)CCC/C=C\C[C@@H]1[C@H]2CC[C@H](C2)[C@H]1NS(=O)(=O)c1ccc2c(c1)oc1ccccc12`, in that order: 22 nM and 160 nM.
Take `O=C(O)CCC/C=C\C[C@@H]1[C@H]2CC[C@H](C2)[C@H]1NS(=O)(=O)c1ccccc1Br`: the IC50 in experiment [1] came to 5300 nM; in experiment [2], 340 nM.
For the compound `CCOc1cc2c(cc1S(=O)(=O)N[C@@H]1[C@@H]3CC[C@@H](C3)[C@H]1C/C=C\CCCC(=O)O)oc1ccccc12`, the IC50 in experiment [1] was found to be 32 nM; in experiment [2] it was 34 nM. Besides, the inhibition in vivo at 10 mg/kg in the experiment with Cavia porcellus [3] is 53%.
Take `O=C(O)CCC/C=C\C[C@@H]1[C@H]2CC[C@H](C2)[C@H]1NS(=O)(=O)c1ccc(/C=C/c2ccccc2)s1`: the figures for the IC50 in experiment [1] and in experiment [2] were 90 nM and 100 nM, respectively.
On to `Cc1cc(C)c(S(=O)(=O)N[C@@H]2[C@@H]3CC[C@@H](C3)[C@H]2C/C=C\CCCC(=O)O)c(C)c1`, for which the IC50 was found to be 5400 nM in experiment [1] and 130 nM in experiment [2].
Consider `O=C(O)CCC/C=C\C[C@@H]1[C@H]2CC[C@H](C2)[C@H]1NS(=O)(=O)Cc1ccc(-c2ccccc2)cc1`, for which the IC50 in experiment [1] is 8600 nM; in experiment [2] it was over 1000 nM.
For `O=C(O)CCC/C=C\C[C@@H]1[C@H]2CC[C@H](C2)[C@H]1NS(=O)(=O)c1ccc(NC(=O)c2ccccc2)cc1`, in that order: 6000 nM and 120 nM.
The corresponding values for `COc1ccc(S(=O)(=O)N[C@@H]2[C@@H]3CC[C@@H](C3)[C@H]2C/C=C\CCCC(=O)O)cc1[N+](=O)[O-]` are 5400 nM and 280 nM.
For `CN(C)c1ccc2c(c1)oc1ccc(S(=O)(=O)N[C@@H]3[C@@H]4CC[C@@H](C4)[C@H]3C/C=C\CCCC(=O)O)cc12`, in that order: 36 nM and 170 nM.
With `O=C(O)CCC/C=C\C[C@@H]1[C@H]2CC[C@H](C2)[C@H]1NS(=O)(=O)c1ccc(C#Cc2ccccc2)cc1`, the IC50 is 8.5 nM in experiment [1] and 210 nM in experiment [2].
The corresponding values for `O=C(O)CCC/C=C\C[C@@H]1[C@H]2CC[C@H](C2)[C@H]1NS(=O)(=O)c1ccc(/C=C/c2ccccc2)cc1` are 100 nM and 180 nM.
The corresponding values for `O=C(O)CCC/C=C\C[C@@H]1[C@H]2CC[C@H](C2)[C@H]1NS(=O)(=O)c1ccc(Nc2ccccc2)cc1` are 330 nM and 160 nM.
As to `O=C(O)CCC/C=C\C[C@@H]1[C@H]2CC[C@H](C2)[C@H]1NS(=O)(=O)c1ccccc1-c1ccccc1`, the IC50 in experiment [1] was determined as 8600 nM.
`O=C(O)CCC/C=C\C[C@@H]1[C@H]2CC[C@H](C2)[C@H]1NS(=O)(=O)c1cccc(-c2ccccc2)c1`: the IC50 in experiment [1] was 670 nM; in experiment [2], 280 nM.
